Marks after values point to notes of the source that are not given here.
Assays:
full-length CHK2 [1] = target: T1, full-length CHK2 (Homo sapiens, UniProt O96017); assay: Microfluidic mobility shift assay for IC50 determination; assay type: biochemical; conditions: for Ligand Efficiency: calculated using mean mobility shift IC50; for IC50: mean ± SD of triplicate
T1 construct: full-length human CHK2 (residues 1 to 543); 6xHis (N); made in house; host or cells: Sf9 insect cells (baculovirus)
Procedure: In addition, percentage inhibition and IC50 values for all follow-up compounds were determined in triplicate using this assay. […] An ECHO® 550 acoustic dispenser (Labcyte Inc™, Dublin, Ireland) was used to generate duplicate eight-point dilution curves directly into 384-well low-volume polystyrene assay plates (Corning Life Sciences, New York, USA). For each compound, a 10 mM stock concentration in 100% DMSO was used.
The plate was sealed and centrifuged for 1 min at 1000 rpm before incubation for 1 h at room temperature.
IC50 values were calculated from a four-parameter logistics fit of percentage inhibition versus concentration using the Studies package (from Dotmatics, Bishops Stortford, UK).

[2] = target: T2, kinase domain of CHK2 (CHK2-KD, residues 210-531) (Homo sapiens, UniProt O96017); assay: Thermal shift assay (SYPRO Orange); assay type: binding; conditions: for T m, ligand (standard deviations from the plate mean): highest value of two independent measurements, 2 mM fragment; for ΔT m, ligand: mean of two independent measurements, 2 mM ligand
T2 construct: The kinase domain of CHK2 (residues 210-531) was produced as a GST-fusion protein; GST (cleaved yes); made in house
T2 sequence (O96017 210-531): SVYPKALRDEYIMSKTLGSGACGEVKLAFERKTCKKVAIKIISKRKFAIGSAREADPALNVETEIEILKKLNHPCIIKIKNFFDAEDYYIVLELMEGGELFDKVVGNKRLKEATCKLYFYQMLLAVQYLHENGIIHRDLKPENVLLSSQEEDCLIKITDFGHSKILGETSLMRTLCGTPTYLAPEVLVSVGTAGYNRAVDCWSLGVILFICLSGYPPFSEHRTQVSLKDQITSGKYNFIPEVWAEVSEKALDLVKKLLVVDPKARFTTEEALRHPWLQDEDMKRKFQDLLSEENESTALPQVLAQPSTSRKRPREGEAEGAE
Procedure: In parallel, we screened the fragment library against the kinase domain of CHK2 (CHK2-KD, residues 210-531) using a thermal shift assay. In a thermal shift assay, the folding stability of a target protein is measured by its thermally-induced unfolding. An increase in melting temperature of a protein in the presence of a ligand is used to identify ligand binding, assuming that the bound ligand stabilizes the target protein and therefore increases the energy required for its thermal unfolding. The thermal unfolding of CHK2-KD was measured using the fluorescent dye SYPRO® Orange™, which is sensitive to its environment and preferentially binds to hydrophobic patches that are typically exposed upon protein unfolding. To identify the hit threshold, we calculated the standard deviation (SD) of the melting temperature of CHK2 in the presence of a ligand (T m, ligand) for each plate. Ligands with a T m, ligand value of more than 2 standard deviations above the mean T m, ligand for each plate in at least one of the duplicates were defined as hits. We calculated the mean change in melting temperature from duplicate measurements (ΔT m, ligand) by subtracting the mean melting temperature of six reference samples of protein without ligand (T m, 0) from the melting temperature of CHK2 samples with ligand (T m, ligand).
Thermal shift screening of the ICR fragment library against a truncated version of CHK2 comprising only the kinase domain (CHK2-KD), was carried out using an Opticon 2 RT-PCR machine (Bio-Rad, Hemel Hempstead, UK). […] All experiments were performed in white 96-well SuperPlate skirted PCR-plates (ABgene®, Thermo Scientific, Loughborough, UK). Fragments were screened at a final concentration of 2 mM in assay buffer containing a final concentration of 2% (v/v) DMSO and all measurements were carried out in duplicate. The well contents were mixed by centrifugation for 2 min at 500 g and pre-equilibrated for 5 min at 20°C before starting the thermal shift experiment. All melting curves were generated from 20°C to 95°C, raising the temperature in steps of 0.5°C and keeping it constant for 15 seconds at each step. […] MgATP (2 mM ATP and 5 mM MgCl2) in the presence of 2% (v/v) DMSO was used as a positive control. For each experiment, the data range of the protein unfolding transition was established using the Excel-based worksheet ‘DSF Analysis’, made available by the Structural Genomics Consortium (SGC), Oxford, and subsequently fitted with a Boltzmann sigmoidal equation using GraphPad Prism version 5 (GraphPad Software, San Diego, California, USA, www.graphpad.com), from which the melting temperature T m was calculated. The change in melting temperature caused by ligand binding, expressed as the mean from duplicate measurements (ΔT m, ligand), was calculated by subtracting T m, 0 from each melting temperature obtained in the presence of a ligand (T m, ligand) using the DSF-analysis spreadsheet. The hit threshold was determined by calculating the standard deviation (SD) of the melting temperatures of CHK2 in the presence of ligand (T m, ligand) for every plate. Ligands with a T m, ligand>mean(T m, ligand) +2SD in at least one of the duplicates were defined as hits.

full-length CHK2 [3] = target: T1, full-length CHK2; assay: High-concentration AlphaScreen kinase assay (phosphorylation of CDC25C peptide); assay type: biochemical; conditions: for inhibition at 300 µM: primary screening data, compound concentration 300 µM, mean ± SD of triplicate, read-out: AlphaScreen™ (percentage inhibition)
Procedure: To identify fragments binding in the ATP-binding-site of CHK2, we screened the in-house fragment library consisting of 1869 compounds, as described above, against full-length CHK2 using an AlphaScreen™ kinase assay, in which inhibition of full-length CHK2 was measured by a reduction in the phosphorylation of a CDC25C peptide (Figure S1). Because of the generally weak affinity of fragments, the assay was carried out at a high compound concentration (300 µM). […] All 45 hits were confirmed by re-assaying them under the same conditions. To eliminate potential false positives due to aggregation of poorly soluble fragments, or owing to interference with the AlphaScreen™ signal, the hits were assayed by including 0.01% (v/v) Triton™ X-100 in the assay buffer, and in the presence of phosphorylated rather than unphosphorylated peptide substrate, respectively. The average robust Z’ for the confirmation assays was 0.9. […] The final confirmed hit rate for the assay was 1.1%.
Full-length CHK2 was screened against the ICR fragment library consisting of 1869 fragments using a biochemical assay based on AlphaScreen™ technology in which the CHK2 kinase activity was measured by monitoring the phosphorylation of a CDC25C peptide using a phospho-specific antibody. Assay conditions were similar to those described by Hilton et al., but all fragments were screened at a final concentration of 300 µM. Amendments to the protocol included a change in the full-length CHK2 concentration to 2 nM and a final concentration of the antibody against phosphorylated CDC25C of 0.5 nM. For a positive control, 4-(2-amino-5-(thiophen-3-yl)pyridin-3-yl)benzoic acid (27, Figure S4, referred to as compound 19 in Hilton et al.) was added at a final concentration of 10 µM. The phosphorylation reaction was performed for 80 min at room temperature and stopped by the addition of 5 µL of the previously described detection buffer. Plates were incubated overnight at room temperature and in the dark, and the assay endpoint was measured using an Envision™ 2103 multilabel reader (Perkin Elmer Life Sciences, Seer Green, UK). Primary screening data were analyzed in ActivityBase (IDBS, Guildford, UK). Percentage inhibition was calculated as follows: 100*(1–(S–B)/(T–B)), where S represented the counts for each compound well, B the counts in the wells containing no enzyme, and T the counts in the total activity wells. The plates were assayed in triplicate and fragments with a percentage inhibition of 50% or more in at least two out of the three measurements were defined as initial hits. Initial hits were re-assayed under the same conditions in triplicate for reconfirmation. Furthermore, all hits were tested for interference by repeating the assay in the presence of phosphorylated rather than unphosphorylated peptide substrate, and for aggregation by including 0.01% (v/v) Triton™ X-100 in the assay buffer.

[4] = tested on: ovarian cancer cell lines; conditions: cited from earlier work
[5] = cited from earlier work
cancer cell lines = tested on: cancer cell lines; parameters: method as in PMID 19741151; conditions: cited from earlier work
CHK1 = target: T3, CHK1 (Homo sapiens, UniProt O14757); assay: CHK1 mobility shift assay; assay type: biochemical; conditions: inactive
T3 sequence (O14757 1-476): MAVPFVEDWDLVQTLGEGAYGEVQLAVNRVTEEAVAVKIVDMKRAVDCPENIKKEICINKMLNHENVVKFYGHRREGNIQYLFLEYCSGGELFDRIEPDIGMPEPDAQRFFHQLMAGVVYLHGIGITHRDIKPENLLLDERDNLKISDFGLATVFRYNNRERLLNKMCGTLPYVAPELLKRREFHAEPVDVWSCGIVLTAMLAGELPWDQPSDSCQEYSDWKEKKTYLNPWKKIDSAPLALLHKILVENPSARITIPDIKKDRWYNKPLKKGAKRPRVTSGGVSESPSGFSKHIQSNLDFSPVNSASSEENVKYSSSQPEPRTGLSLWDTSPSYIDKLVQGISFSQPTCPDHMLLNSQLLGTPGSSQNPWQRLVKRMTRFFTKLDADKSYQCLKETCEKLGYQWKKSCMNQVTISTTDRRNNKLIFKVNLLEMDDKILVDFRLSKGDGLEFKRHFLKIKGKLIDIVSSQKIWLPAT
Source text: However, it is very difficult to assess the contribution to selectivity of binding in this pocket using the inhibitor 26, because its CHK2 selectivity is most likely dominated by the unusual binding of the benzamidazole scaffold to the hinge through a mediating water molecule.

[6] = follow-up compounds from similarity search (Table 2)

T1 sequence (O96017 whole entry, the tested form may be a part): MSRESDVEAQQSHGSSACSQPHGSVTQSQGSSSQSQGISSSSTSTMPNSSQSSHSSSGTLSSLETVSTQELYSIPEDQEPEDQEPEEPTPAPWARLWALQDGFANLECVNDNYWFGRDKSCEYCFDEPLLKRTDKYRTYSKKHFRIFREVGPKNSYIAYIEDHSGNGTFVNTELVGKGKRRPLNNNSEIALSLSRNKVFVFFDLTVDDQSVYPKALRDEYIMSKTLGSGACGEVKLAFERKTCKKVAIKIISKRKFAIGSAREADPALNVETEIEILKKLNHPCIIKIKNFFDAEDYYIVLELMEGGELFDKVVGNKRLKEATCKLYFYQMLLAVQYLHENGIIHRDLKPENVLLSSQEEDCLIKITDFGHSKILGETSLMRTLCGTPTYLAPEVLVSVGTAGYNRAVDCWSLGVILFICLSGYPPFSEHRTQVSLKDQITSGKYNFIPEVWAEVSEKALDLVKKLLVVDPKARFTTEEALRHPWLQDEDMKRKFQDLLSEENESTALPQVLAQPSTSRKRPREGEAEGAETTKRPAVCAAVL

Compound | Ligand Efficiency (full-length CHK2 [1]; Table 1) | IC50 (full-length CHK2 [1]; fragment hits, 100 µM ATP) | T m, ligand (standard deviations from the plate mean) [2] | ΔT m, ligand [2] | inhibition at 300 µM (full-length CHK2 [3]) | also measured
CCOC(=O)N1CCN(C(=O)Nc2ccc3nccnc3c2)CC1 [Compound 23] | – | – | – | – | – | Ligand Efficiency (full-length CHK2 [1]; Table 2): 0.28 kcal mol^−1 HA^−1; IC50 (full-length CHK2 [1]; [6]): 14.2 ± 8.6 µM
CC(C)(C)NC(=O)Nc1ccc2nccnc2c1 [Compound 14] | 0.34 kcal mol^−1 HA^−1 | 36.9 ± 9 µM | 4.3 standard deviations | 4.5±0.02 °C | 59.5 ± 1.9% | –
C/C(=N/O)c1ccc(O)cc1O [Compound 12] | 0.47 kcal mol^−1 HA^−1 | 85.6 ± 7.9 µM | 2.9 standard deviations | 3.0 ^f °C | 58.2 ± 1.7% | –
c1cncc(-c2n[nH]c3ccnc(-c4cccs4)c23)c1 [Compound 21] | – | – | – | – | – | Ligand Efficiency (full-length CHK2 [1]; Table 2): 0.32 kcal mol^−1 HA^−1; IC50 (full-length CHK2 [1]; [6]): 21.3 ± 2.1 µM
Cc1n[nH]c(N)c1-c1cccs1 [Compound 18] | 0.47 kcal mol^−1 HA^−1 | 76.8 ± 1.4 µM | 4.6 standard deviations | 3.9±1.3 °C | 60.9 ± 2.1% | –
CC(CO)NC(=N)c1c(O)nsc1Nc1ccc(Nc2ccc(Br)cc2)cc1 (centres unmarked) [VRX0466617] | – | – | – | – | – | Potentiation in combination with genotoxic agents [4]: no such effects have been observed
CC(=O)N1CCC(C(=O)Nc2ccc(C)cn2)CC1 [Compound 19] | 0.26 kcal mol^−1 HA^−1 | 228 ± 22.2 µM | 5.7 standard deviations | 4.0±0.6 °C | 34.7 ± 0.93% | –
COc1cc2nc(-c3cc(F)ccc3O)nc(N[C@@H]3CNC[C@H]3C(C)(C)O)c2cc1OC [CCT241533] | – | – | – | – | – | Potentiation in combination with genotoxic agents [4]: no such effects have been observed; Potentiation of the cytotoxicity of PARP inhibitors such as AG14447 and olaparib [5]: potentiates the cytotoxicity
C/C(=N\NC(=N)N)c1ccc(NC(=O)c2cc3cccc([N+](=O)[O-])c3[nH]2)cc1 [PV1019, 7-nitro-1H-indole-2-carboxylic acid {4-[1-(guanidinohydrazone)-ethyl]-phenyl}-amide] | – | – | – | – | – | Potentiation of the cytotoxicity of topotecan and campothecan ([4]; ovarian cancer cell lines): potentiation of the cytotoxicity; Antiproliferative effect (cancer cell lines): antiproliferative effect
c1coc(-c2ccnc3[nH]nc(C4CC4)c23)c1 [Compound 20] | – | – | – | – | – | Ligand Efficiency (full-length CHK2 [1]; Table 2): 0.42 kcal mol^−1 HA^−1; IC50 (full-length CHK2 [1]; [6]): 7.2 ± 2.9 µM
Nc1ncc(-c2ccsc2)cc1-c1ccc(C(=O)O)cc1 [Compound 27, 4-(2-amino-5-(thiophen-3-yl)pyridin-3-yl)benzoic acid, reference compound] | – | – | – | – | – | inhibition at 10 µM (full-length CHK2 [3]; concentration of 10 µM, read-out: AlphaScreen™ percentage inhibition, positive control): 62.7%
COc1ccc(CNC(=O)c2ccc3nccnc3c2)cc1 [Compound 22] | – | – | – | – | – | IC50 (CHK1): > 200 µM; Ligand Efficiency (full-length CHK2 [1]; Table 2): 0.34 kcal mol^−1 HA^−1; IC50 (full-length CHK2 [1]; [6]): 3.6 ± 1.2 µM
O=C(NCc1ccco1)c1ccc2nccnc2c1 [Compound 13] | 0.36 kcal mol^−1 HA^−1 | 11.7 ± 2 µM | 5.7 standard deviations | 5.6±0.3 °C | 76.1 ± 1.1% | IC50 (CHK1): > 200 µM

Now from value to compound, other results behind:

Ligand Efficiency (full-length CHK2 [1]; Table 1) | IC50 (full-length CHK2 [1]; fragment hits, 100 µM ATP) | T m, ligand (standard deviations from the plate mean) [2] | ΔT m, ligand [2] | inhibition at 300 µM (full-length CHK2 [3]) | Compound | also measured
0.64 kcal mol^−1 HA^−1 | 2.7 ± 0.2 µM | 5.8 standard deviations | 7.0±0.8 °C | 91.4 ± 0.4% | c1ccc2c(c1)[nH]c1ncnn12 [Compound 11] | –
0.55 kcal mol^−1 HA^−1 | 15.9 ± 1.1 µM | 4.6 standard deviations | 5.0±0.6 °C | 72.8 ± 6.7% | Cc1ccc2ncnc(N)c2c1 [Compound 15] | –
0.47 kcal mol^−1 HA^−1 | 76.2 ± 3.3 µM | 4.2 standard deviations | 3.7±0.9 °C | 71.5 ± 25.5% | Nc1cc(-c2cccnc2)n[nH]1 [Compound 17] | –
– | – | 3.7 standard deviations | 2.6±1.7 °C | 56.1 ± 1% | Cc1cc(-c2ccccc2)n[nH]1 [Compound 16] | –
